Laboratory results published in patent US20260109721A1, “IONIZABLE CATIONIC LIPIDS INCORPORATING SILICON: SYNTHESIS AND LNP FORMULATION” (priority 2023, published 2026).

Experiments:
[1] = system: HepG2 cell line; experiment: In vitro toxicity study on HepG2 cell line (resazurin, viability and IC50); format: cell-based, human; settings: resazurin; for Viability (%) at different lipid concentrations, mean: HepG2 cells, 48 h post-treatment, relative to ethanol vehicle controls; for IC50: Homo sapiens, lipid toxicity, HepG2, 48 h post-treatment, 6.25-800 μM, read-out: IC50 value, μM (on HepG2 cell)
Method in brief: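 Resazurin read-out (ex 530/em 580 nm, 5 h at 37 °C) measured lipid toxicity 48 h after dosing HepG2 cells (1000/well) at 6.25–800 μM. Viability was normalised to ethanol vehicle, and IC50 was derived from concentration-response curves.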

[2] = system: HeLa cells; experiment: Transfection efficiency with Luciferase (SecNLuc) mRNA, Nano-Glo assay (Method A); format: cell-based; settings: Luc mRNA, 24 h, luminescence; for Transfection 10 ng mRNA: 10 ng mRNA/well; for Transfection 50 ng mRNA: 50 ng mRNA/well; for Transfection 100 ng mRNA: 100 ng mRNA/well
Method in brief: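 Luminescence from secreted NanoLuc, read with Nano-Glo reagent, gave transfection efficiency 24 h after HeLa cells were dosed. Method A lipid nanoparticles delivered SecNLuc mRNA at 10, 50 or 100 ng per well in triplicate.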

[3] = system: HeLa cells; experiment: Cell viability assessment with resazurin assay (Method A); format: cell-based; settings: human
Method in brief: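 Viability is given as percent of control metabolic activity: background-corrected resorufin fluorescence (ex 540, em 610 nm), with OptiMEM-only wells set to 100%. Resazurin at 0.025 mg/ml in DMEM/F12 with 10% FCS was applied to LNP-transfected HeLa cells for 50 min at 37 °C.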

SMILES	Viability (%) at different lipid concentrations, mean ([1]; 6.25 μM lipid)	Viability (%) at different lipid concentrations, mean ([1]; 12.5 μM lipid)	Viability (%) at different lipid concentrations, mean ([1]; 25 μM lipid)	Viability (%) at different lipid concentrations, mean ([1]; 50 μM lipid)	Viability (%) at different lipid concentrations, mean ([1]; 100 μM lipid)	Viability (%) at different lipid concentrations, mean ([1]; 200 μM lipid)	Viability (%) at different lipid concentrations, mean ([1]; 400 μM lipid)	Viability (%) at different lipid concentrations, mean ([1]; 800 μM lipid)	IC50 [1]	Transfection 10 ng mRNA [2]	Transfection 50 ng mRNA [2]	Transfection 100 ng mRNA [2]	Cell Viability % (Average metabolic rate over all doses, Resazurin) [3]
CCCCC/C=C\C/C=C\CCCCCCCCOC(CCCCCN(C)CC(O)CO)O[Si](C)(C)OCCCCCCCC/C=C\C/C=C\CCCCC (stereo not drawn) [Example 66, (22Z,25Z)-4,12,12-trimethyl-10-(((9Z,12Z)-octadeca-9,12-dien-1-yl)oxy)-11,13-dioxa-4-aza-12-silahentriaconta-22,25-diene-1,2-diol]	100.5%	97.9%	97.2%	96.5%	94.2%	95.5%	86.0%	42.6%	164 µM	1.06E+05	1.14E+06	3.31E+06	91%
C#CCN(C)CCCCCCO[Si](C)(C)OC(CCCCCCC/C=C\C/C=C\CCCCC)OCCCCCCCC/C=C\C/C=C\CCCCC (stereo not drawn) [Example 67, (20Z,23Z)-10-((8Z,11Z)-heptadeca-8,11-dien-1-yl)-N,8,8-trimethyl-N-(prop-2-yn-1-yl)-7,9,11-trioxa-8-silanonacosa-20,23-dien-1-amine]	100.2%	97.1%	99.5%	95.6%	92.6%	24.8%	3.0%	1.7%	–	2.42E+04	4.02E+05	1.79E+06	94%
CCCCC/C=C\C/C=C\CCCCCCCCOC(CCCCCCC/C=C\C/C=C\CCCCC)O[Si](C)(C)OCCCCCCN(C)Cc1cn(C2[C@H](O)O[C@H](CO)[C@@H](O)[C@@H]2O)nn1 (stereo partly drawn) [Example 68, (4R,5S,6R)-3-(4-((22Z,25Z)-12-((8Z,11Z)-heptadeca-8,11-dien-1-yl)-2,10,10-trimethyl-9,11,13-trioxa-2-aza-10-silahentriaconta-22,25-dien-1-yl)-1H-1,2,3-triazol-1-yl)-6-(hydroxymethyl)tetrahydro-2H-pyran-2,4,5-triol]	99.4%	97.7%	107.3%	120.2%	117.6%	103.6%	68.1%	12.3%	461 µM	2.74E+02	1.30E+03	7.84E+03	92%
CCCCC/C=C\C/C=C\CCCCCCCCOC(CCCCCCC/C=C\C/C=C\CCCCC)O[Si](C)(C)OCCCCCCN(CCO)CCN(CCO)CCCCCCO[Si](C)(C)OC(CCCCCCC/C=C\C/C=C\CCCCC)OCCCCCCCC/C=C\C/C=C\CCCCC (stereo not drawn) [Example 71, (26Z,29Z)-16-((8Z,11Z)-heptadeca-8,11-dien-1-yl)-3-((20Z,23Z)-10-((8Z,11Z)-heptadeca-8,11-dien-1-yl)-8,8-dimethyl-7,9,11-trioxa-8-silanonacosa-20,23-dien-1-yl)-6-(2-hydroxyethyl)-14,14-dimethyl-13,15,17-trioxa-3,6-diaza-14-silapentatriaconta-26,29-dien-1-ol]	102.71%	102.5%	106.2%	107.61%	93.09%	72.87%	39.19%	9.92%	321 µM	3.24E+04	9.78E+05	5.19E+06	85%
